# In the supplement of paper PMC10307832:
# Columns and labels:
# Assay in all cases: relative viability (nuclei count vs DMSO), 5 days (fraction); higher = more cells survive
# [1] = compound: Cn1nnc2c(C(N)=O)ncn2c1=O [Temozolomide] + CCNC(=O)c1noc(-c2cc(C(C)C)c(O)cc2O)c1-c1ccc(CN2CCOCC2)cc1 [Luminespib] (partner 0.01 µM)
# Summary of the method: (§1)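 Lung cancer cell lines were pin-tool dosed in 1536-well plates on the day after seeding, with either a lone drug or a fixed anchor-drug dose plus five library-drug doses (not always all listed) in √10 steps. Nuclei were counted on 4× images after 5 days. Relative viability is the ratio of treated-well to vehicle-well nuclei counts, with each value a median of duplicate plates.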
# AZD5582 + OSI-027 = compound: C[C@@H](C(=O)N[C@@H](C1CCCCC1)C(=O)N2CCC[C@H]2C(=O)N[C@@H]3[C@@H](CC4=CC=CC=C34)OCC#CC#CCO[C@@H]5CC6=CC=CC=C6[C@@H]5NC(=O)[C@@H]7CCCN7C(=O)[C@H](C8CCCCC8)NC(=O)[C@H](C)NC)NC [AZD5582] + COc1cccc2cc(-c3nc([C@H]4CC[C@H](C(=O)O)CC4)n4ncnc(N)c34)[nH]c12 [OSI-027] (partner 0.5 µM)
# Summary of the method: as §1
# AZD5582 + Linsitinib = compound: C[C@@H](C(=O)N[C@@H](C1CCCCC1)C(=O)N2CCC[C@H]2C(=O)N[C@@H]3[C@@H](CC4=CC=CC=C34)OCC#CC#CCO[C@@H]5CC6=CC=CC=C6[C@@H]5NC(=O)[C@@H]7CCCN7C(=O)[C@H](C8CCCCC8)NC(=O)[C@H](C)NC)NC [AZD5582] + C[C@]1(O)C[C@@H](c2nc(-c3ccc4ccc(-c5ccccc5)nc4c3)c3c(N)nccn32)C1 [Linsitinib] (partner 1 µM)
# Summary of the method: as §1
# AZD5582 + Phenformin = compound: C[C@@H](C(=O)N[C@@H](C1CCCCC1)C(=O)N2CCC[C@H]2C(=O)N[C@@H]3[C@@H](CC4=CC=CC=C34)OCC#CC#CCO[C@@H]5CC6=CC=CC=C6[C@@H]5NC(=O)[C@@H]7CCCN7C(=O)[C@H](C8CCCCC8)NC(=O)[C@H](C)NC)NC [AZD5582] + N=C(N)NC(=N)NCCc1ccccc1 [Phenformin] (partner 250 µM)
# Summary of the method: as §1
cell line,measurement,setting,value
RERF-LC-KJ,relative viability,[1]; first compound 0.2 µM,1.29
same,relative viability,[1]; first compound 0.6325 µM,1.19
same,relative viability,[1]; first compound 2 µM,1.32
same,relative viability,[1]; first compound 6.325 µM,1.19
same,relative viability,[1]; first compound 20 µM,1.27
same,relative viability,AZD5582 + OSI-027; first compound 0.01581 µM,0.508
same,relative viability,AZD5582 + OSI-027; first compound 0.05 µM,0.289
same,relative viability,AZD5582 + Linsitinib; first compound 0.001581 µM,0.525
same,relative viability,AZD5582 + Linsitinib; first compound 0.005 µM,0.481
same,relative viability,AZD5582 + Linsitinib; first compound 0.01581 µM,0.879
same,relative viability,AZD5582 + Linsitinib; first compound 0.05 µM,0.464
same,relative viability,AZD5582 + Phenformin; first compound 0.01581 µM,0.35
same,relative viability,AZD5582 + Phenformin; first compound 0.05 µM,0.197
SK-LU-1,relative viability,[1]; first compound 0.2 µM,0.231
same,relative viability,[1]; first compound 0.6325 µM,0.195
same,relative viability,[1]; first compound 2 µM,0.189
same,relative viability,[1]; first compound 6.325 µM,0.191
same,relative viability,[1]; first compound 20 µM,0.24
same,relative viability,AZD5582 + OSI-027; first compound 0.001581 µM,0.288
same,relative viability,AZD5582 + OSI-027; first compound 0.005 µM,0.273
same,relative viability,AZD5582 + OSI-027; first compound 0.01581 µM,0.344
same,relative viability,AZD5582 + OSI-027; first compound 0.05 µM,0.253
same,relative viability,AZD5582 + Linsitinib; first compound 0.001581 µM,0.613
same,relative viability,AZD5582 + Linsitinib; first compound 0.005 µM,0.495
same,relative viability,AZD5582 + Linsitinib; first compound 0.01581 µM,1.23
same,relative viability,AZD5582 + Linsitinib; first compound 0.05 µM,0.273
same,relative viability,AZD5582 + Phenformin; first compound 0.001581 µM,0.362
same,relative viability,AZD5582 + Phenformin; first compound 0.005 µM,0.342
same,relative viability,AZD5582 + Phenformin; first compound 0.01581 µM,0.508
same,relative viability,AZD5582 + Phenformin; first compound 0.05 µM,0.279
SK-MES-1,relative viability,[1]; first compound 0.2 µM,0.939
same,relative viability,[1]; first compound 0.6325 µM,0.823
same,relative viability,[1]; first compound 2 µM,0.777
same,relative viability,[1]; first compound 6.325 µM,0.831
same,relative viability,[1]; first compound 20 µM,0.772
same,relative viability,AZD5582 + OSI-027; first compound 0.001581 µM,0.599
same,relative viability,AZD5582 + OSI-027; first compound 0.005 µM,0.602
same,relative viability,AZD5582 + OSI-027; first compound 0.01581 µM,0.566
same,relative viability,AZD5582 + OSI-027; first compound 0.05 µM,0.591
same,relative viability,AZD5582 + Linsitinib; first compound 0.001581 µM,1.1
same,relative viability,AZD5582 + Linsitinib; first compound 0.005 µM,1.16
same,relative viability,AZD5582 + Linsitinib; first compound 0.01581 µM,1.04
same,relative viability,AZD5582 + Linsitinib; first compound 0.05 µM,1.17
same,relative viability,AZD5582 + Phenformin; first compound 0.001581 µM,0.6
same,relative viability,AZD5582 + Phenformin; first compound 0.005 µM,0.678
same,relative viability,AZD5582 + Phenformin; first compound 0.01581 µM,0.649
same,relative viability,AZD5582 + Phenformin; first compound 0.05 µM,0.655
SW 1573,relative viability,[1]; first compound 0.2 µM,0.295
same,relative viability,[1]; first compound 0.6325 µM,0.331
same,relative viability,[1]; first compound 2 µM,0.273
same,relative viability,[1]; first compound 6.325 µM,0.206
same,relative viability,[1]; first compound 20 µM,0.28
same,relative viability,AZD5582 + OSI-027; first compound 0.001581 µM,0.72
same,relative viability,AZD5582 + OSI-027; first compound 0.005 µM,0.66
same,relative viability,AZD5582 + OSI-027; first compound 0.01581 µM,0.662
same,relative viability,AZD5582 + OSI-027; first compound 0.05 µM,0.862
same,relative viability,AZD5582 + Linsitinib; first compound 0.001581 µM,0.918
same,relative viability,AZD5582 + Linsitinib; first compound 0.005 µM,0.834
same,relative viability,AZD5582 + Linsitinib; first compound 0.01581 µM,0.801
same,relative viability,AZD5582 + Linsitinib; first compound 0.05 µM,0.916
same,relative viability,AZD5582 + Phenformin; first compound 0.001581 µM,0.394
same,relative viability,AZD5582 + Phenformin; first compound 0.005 µM,0.466
same,relative viability,AZD5582 + Phenformin; first compound 0.01581 µM,0.37
same,relative viability,AZD5582 + Phenformin; first compound 0.05 µM,0.499
UMC-11,relative viability,[1]; first compound 0.2 µM,1.05
same,relative viability,[1]; first compound 0.6325 µM,1.07
same,relative viability,[1]; first compound 2 µM,1.17
same,relative viability,[1]; first compound 6.325 µM,0.971
same,relative viability,[1]; first compound 20 µM,0.66
same,relative viability,AZD5582 + OSI-027; first compound 0.001581 µM,0.469
same,relative viability,AZD5582 + OSI-027; first compound 0.005 µM,0.53
same,relative viability,AZD5582 + OSI-027; first compound 0.01581 µM,0.476
same,relative viability,AZD5582 + OSI-027; first compound 0.05 µM,0.454
same,relative viability,AZD5582 + Linsitinib; first compound 0.001581 µM,0.931
same,relative viability,AZD5582 + Linsitinib; first compound 0.005 µM,1.07
same,relative viability,AZD5582 + Linsitinib; first compound 0.01581 µM,0.96
same,relative viability,AZD5582 + Linsitinib; first compound 0.05 µM,1.11
same,relative viability,AZD5582 + Phenformin; first compound 0.001581 µM,0.281
same,relative viability,AZD5582 + Phenformin; first compound 0.005 µM,0.301
same,relative viability,AZD5582 + Phenformin; first compound 0.01581 µM,0.298
same,relative viability,AZD5582 + Phenformin; first compound 0.05 µM,0.412
